Where two headings read alike, the source gives them in different places. Values belong to the molecule of their own block, whether it stands above or below them.
Key:
CYP2E1 [1] = conditions: cited from earlier work
[2] = molecular target: T1, human cytochrome P450 2E1 (Homo sapiens, UniProt P05181); experiment: Steady-state p-nitrophenol oxidation, CYP2E1 inhibition in SUPERSOMES; format: biochemical
T1 construct: purchased BD Biosciences
Experimental: Initial velocities of the oxidation of p-nitrophenol (p-NP) to p-nitrocatechol by human cytochrome P450 2E1 were determined by measuring the absorption at 535 nm or 546 nm to determine product formation as described before.
Alternatively, 100 mM HEPES pH 7.6 was additionally used for the enzyme kinetic measurements. A final concentration of either 50 nM enzyme in form of SUPERSOMES™ from BD Biosciences or microsomes in case of cell culture experiments was added. Reaction was initiated by adding 500 μM (enzyme kinetic measurements) or 0.1 mM (cell culture experiments) NADPH after preincubation at 37° C and stopped by adding 20% trichloroacetic acid (TCA) after 30 minutes to ensure linearity of product formation. The protein concentration for the microsomal fraction was determined by Bradford assay to calculate the results expressed as units of specific activity defined as the amount of enzyme that consumes 1 μmol/L of NADPH per hour per microgram of protein. Inhibitor stock solutions were prepared in 0.1% DMSO and diluted to a final DMSO concentration of 0.003% in the reaction mixture at most to avoid enzyme inhibition by this solvent. Inhibitory constants (Ki) were calculated by non-linear fitting of initial velocities. Maximum inhibition could not be achieved since final inhibitor concentrations were limited by DMSO.
Supplementary file pone.0235990.s002.tif: S2 Fig CYP2E1 inhibition by data base inhibitors. To ascertain whether an imidazole containing compound is already commercially available and better suited for development as a drug can-didate, we performed a large virtual library screening of the ZINK database. We found 14,738 hits. The 5,261 commercially available compounds could be classified as 4,710 synthetic and 551 natural molecules. After docking and final scoring process, the seven best synthetic and the three best natural candidates were purchased and tested in vitro for their potential to inhibit CYP2E1 activity. Different concentrations of these compounds dissolved in DMSO were added to 110 μM p-Nitrophenol in 100 mM HEPES buffer pH 7.6 and SUPERSOMES™ with 50 nM human CYP 2E1 to calculate relative activity values. […] 20 μM corresponds to a DMSO volume of 0.02% (v/v). (TIF) Click here for additional data file.

CYP2E1 [3] = conditions: cited from earlier work; remark: listed apart in the source
ethanol-fed Wistar rats [4] = experiment: Oxidative stress parameters in liver of ethanol-fed rats (Lieber-DeCarli diet); format: in vivo; conditions: rat liver
Text: (§1) A total of 68 female Wistar rats (Institute of Pharmacology and Biochemistry Breeding House, Minsk, Belarus) aged 80–90 days and weighting 180–200 g at the beginning of the experiments were used in the study. Each rat group (n = 6–8) was housed in a separate cage and had free access to the liquid diet during the full study period. Prior to the study, the animals were habituated for seven days to the cage conditions and experimental handling. The rats were maintained in a controlled experimental environment (20–25°C, 40–50% humidity, 12 h light per day, room with a 12-h light/dark cycle).
(§2) Rats were divided into ten groups characterized by the diet and the test compounds (S1 Table). Group 1 is the first control group in which a normal solid standard diet was fed for 12 weeks. All other groups received the liquid Lieber-DeCarli (LDC) diet (S2 Table), which combines food and drink in a liquid manner. It was prepared by ssniff Spezialdiäten GmbH, Soest. The addition of maltodextrin to this diet should compensate the pure caloric effect of ethanol, whereby 1.77 g maltodextrin replaces 1 g ethanol. The calorie value of both the control and ethanol diets was the same: 35% calories from fat, 11% from carbohydrates, 18% from protein and 36% from ethanol.
(§3) In the first two weeks rats of all groups–with the exception of group 1 –were fed with LDC diet plus maltodextrin in an appropriate amount to adapt the animals to the liquid diet. Group 2 is the second control group in which the isocaloric diet was administered for further 10 weeks until the end of the experiment. […] The test compounds I-ol, I-an and UDCA were dissolved in a 0.8% aqueous HPMC gel to obtain the appropriate concentrations: (1) I-ol with 0.4, 4 and 40 mg/kg b. w. (2) I-an with 0.4, 4 and 40 mg/kg b. w. (3) UDCA with 40 mg/kg b. w. Rats of group 2 and 3 received only HPMC as a placebo. The LDC diets were fed ad libitum and their intake per cage was controlled daily. The corresponding bottles were stored in the cages from 08:00 a. m. until 06:00 p. m. and replaced by drinking water bottles overnight until 08:00 a. m. in the next morning. Every day at the same time, the test compounds or only HPMC were administered intragastrically by oral gavage with an administration volume of 2 ml/kg b. w. After ten weeks of treatment, the rats were anesthetized with an intraperitoneal injection of a 5% pentobarbital solution and then killed by aorta scarification. Their livers were dissected and liver pieces frozen and stored in liquid nitrogen. A part of the liver was fixed for histological investigations. Blood was collected before sacrifice, centrifuged for serum preparation and finally stored in liquid nitrogen.
The generation of reactive oxygen species (ROS) in rat liver was evaluated by NADPH-induced chemiluminescence with amplification by both luminol for the detection of superoxide (SRA) radical anion and lucigenin detecting hydrogen peroxide as described by Müller-Peddinhaus. In short, liver pieces were homogenized in 0.1 M sodium phosphate buffer pH 7.4. The homogenates were centrifuged at 9,000 x g at 0°C and aliquots were used for the measurement. Reduced glutathione (GSH) was determined by a modified Ellman`s method: 0.2 ml of the liver homogenates’ supernatant were added to 1.6 ml of an EDTA-/sodium […] solution. The absorbance was read at […] against blanks. GSH solution—prepared immediately before use—served as a standard. End products of the lipid peroxidation reaction are equivalent to TBARS (thiobarbituric acid-reacting substances) and their concentration was measured according to Buege et al.. The enzymatic activity of cytosolic glutathione peroxidase (GPx) and microsomal glutathione reductase (GR) were determined as described by Buko at al.. Catalase activity was evaluated by spectrophotometric measurement using hydrogen peroxide as a substrate according to Beers et al.. […]

ethanol-fed Wistar rats [5] = experiment: Liver and serum lipid parameters of ethanol-fed rats; format: in vivo, rat
Text: as §1, §2, §3
(§4) The serum marker enzyme activities, alanine aminotransferase (ALT), aspartate aminotransferase (AST), alkaline phosphatase (AP) and gamma-glutamyltransferase (γ-GT) as well as triglycerides and bilirubin were measured according to manufacturer’s instructions using standard commercial kits from Lachema (PLIVA-Lachema Diagnostika, Czech Republic). Serum concentrations of leptin, adiponectin and TNF-alpha were analyzed using commercial ELISA test kits: BioCat GmbH (Heidelberg, German) for adiponectin and TNF-alpha, BioVendor Laboratory Medicine Inc. (Brno, Czech Republic) for leptin. Insulin serum concentration was determined by radioimmunoassay using the commercially available kit RIO-insulin-PG-J125 (IBOCH, Minsk, Belarus). Glucose serum concentration was determined by the Accu-Check Active blood glucose testing system from Roche-Diagnostics GmbH (Mannheim, Germany).
Lipids were extracted with a chloroform: methanol mixture (2:1 v/v). Neutral lipids and phospholipids were separated into classes by thin-layer chromatography (TLC). Lipid fractions (triglycerides, cholesterol and its fractions) were measured in extracts from scraped spots by routine methods using the appropriate commercial kits. […]

ethanol-fed Wistar rats [6] = experiment: Serum liver enzyme activities of ethanol-fed rats; format: in vivo, rat
Text: as §1, §2, §3, §4

ethanol-fed Wistar rats [7] = experiment: Liver histopathology of ethanol-fed rats; format: in vivo, rat; conditions: I-ol, I-an in their higher concentrations; UDCA 40 mg/kg b.w.; H.E. staining
Experimental: as §3
Liver samples were selected randomly, fixed in Bouin`s solution and embedded in paraffin wax. Histological sections were prepared and stained with haematoxylin and eosin. Other liver samples were fixed in a solution containing formaldehyde, paraformaldehyde and glutaraldehyde with a subsequent post-fixation in 1% osmium containing phosphate buffer pH 7.4 for further analysis. Liver tissue was embedded in a mixture of butyl-methyl-metacrylates. Semifine sections of 0.5–1.0 μm were stained with Asur II, methylen blue and basic fuxine.

[8] = cited from earlier work
cholesterol synthesis = tested on: cholesterol synthesis; set-up: method as in printed; conditions: high concentrations (> or =1.0 mmol/L); ref not given; cited from earlier work
[9] = literature survey, ref not given
[10] = average over 0.4/4/40 mg/kg b.w. (UDCA 40 mg/kg), oral, 10 weeks
[11] = average over doses (UDCA 40 mg/kg)
[12] = liver, average over doses (UDCA 40 mg/kg)
[13] = serum, average over doses (UDCA 40 mg/kg)

T1 sequence (P05181 whole entry): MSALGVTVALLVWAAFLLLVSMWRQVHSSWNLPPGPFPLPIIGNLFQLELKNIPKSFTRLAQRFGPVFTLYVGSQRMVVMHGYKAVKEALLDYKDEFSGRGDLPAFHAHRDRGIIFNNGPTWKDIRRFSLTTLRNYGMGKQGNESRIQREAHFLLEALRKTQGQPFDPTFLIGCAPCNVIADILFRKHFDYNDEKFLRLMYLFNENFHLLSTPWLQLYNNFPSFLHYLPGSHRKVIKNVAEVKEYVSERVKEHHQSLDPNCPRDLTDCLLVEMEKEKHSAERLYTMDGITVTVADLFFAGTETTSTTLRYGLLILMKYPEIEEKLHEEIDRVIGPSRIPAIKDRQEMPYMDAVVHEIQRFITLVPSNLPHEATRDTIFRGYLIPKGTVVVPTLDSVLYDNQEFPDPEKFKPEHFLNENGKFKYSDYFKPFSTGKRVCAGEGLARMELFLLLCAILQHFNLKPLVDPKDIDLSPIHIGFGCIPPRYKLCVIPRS

Molecule: C[S+]([O-])CCCCN=C=S (stereo not shown) [Sulforaphane]
effect on CYP2E1 activity (in words) (CYP2E1 [1]; [9]): Sulforaphane does not inhibit CYP2E1 in the knockin mouse modell.

inhibitory effect on CYP2E1 (in words) ([2]; human CYP2E1 SUPERSOMES): almost identical
Molecule: OCCCCCCCCCn1ccnc1 [I-nonanol, 9-imidazolyl-1-nonanol]

Molecule: C[N+](C)(C)CC(=O)O [Betaine]
effect on CYP2E1 activity (in words) (CYP2E1 [1]; [9]): Betaine reduces CYP2E1 activity only to a minor extend, while attenuating ASH. People with high cholesterol should use betaine anhydrous cautiously.

Molecule: OCCCCCCCCCCn1ccnc1 [I-decanol, 10-imidazolyl-1-decanol]
inhibitory effect on CYP2E1 (in words) ([2]; human CYP2E1 SUPERSOMES): almost identical

Molecule: C[N+](C)(C)CCOP(=O)([O-])OCCCCCCCCCCCCn1ccnc1 [I-phosphocholine, 12-Imidazolyl-dodecan-1-yl-phosphocholine]
Ki ([2]; human CYP2E1 SUPERSOMES, p-nitrophenol oxidation, competitive model with offset): 22 µM

Molecule: O=C(O)CCCCCn1ccnc1 [ω-imidazolylhexanoic acid]
spin shift (CYP2E1 [3]): missing spin shift

Molecule: C[S+](CC[C@H](N)C(=O)[O-])C[C@H]1O[C@@H](n2cnc3c(N)ncnc32)[C@H](O)[C@@H]1O (stereo partly drawn) [S-adenosyl-L-methionine (SAM), S-adenosyl-L-methionine]
effect on CYP2E1 activity (in words) (CYP2E1 [1]; [9]): CYP2E1 activity (SAM is a non-competitive inhibitor), reactive oxygen species, anti-fibrogenic action, clinical trial

Molecule: OCCCCCCCn1ccnc1 [I-heptanol, 7-imidazolyl-1-heptanol]
inhibitory effect on CYP2E1 (in words) ([2]; human CYP2E1 SUPERSOMES): dramatic decrease in inhibitory performance

Molecule: Silymarin
effect on CYP2E1 activity (in words) (CYP2E1 [1]): Has no influence on CYP2E1 activity. Clinical trails with patients having alcoholic liver cirrhosis showed controversial results.

Molecule: O=C(O)CCCCCCCCCCCn1ccnc1 [12 (imidazolyl) dodecanoic acids, 12-(imidazolyl)-dodecanoic acid]
affinity to CYP2E1 compared to other ω imidazolyl alkanoic acids (in words) (CYP2E1 [3]; ref Porubsky, Battaile et al. 2010): highest affinity

Molecule: C[C@H](CCC(=O)O)[C@H]1CC[C@H]2[C@@H]3[C@@H](O)C[C@@H]4C[C@H](O)CC[C@]4(C)[C@H]3CC[C@]12C [UDCA, ursodeoxycholic acid, reference compound]
reduction of ethanol effect on hydrogen peroxide (ethanol-fed Wistar rats [4]; I-ol, I-an 0.4/4/40 mg/kg b.w., UDCA 40 mg/kg, oral, 10 weeks): 46%
GPx activity decrease compared to disease group (ethanol-fed Wistar rats [4]; UDCA 40 mg/kg b.w.): 21%
reduction of ethanol effect on TBARS (ethanol-fed Wistar rats [4]; average over 0.4/4/40 mg/kg b.w. (UDCA 40 mg/kg)): no statistic significant reduction
reduction of ethanol effect on superoxide radical anion (SRA) (ethanol-fed Wistar rats [4]; average over 0.4/4/40 mg/kg b.w. (UDCA 40 mg/kg), daily oral gavage, 10 weeks): no statistic significant reduction
hydrogen peroxide decrease compared to disease group (ethanol-fed Wistar rats [4]; [10]): 32%
reduction of ethanol effect on reduced glutathione (GSH) (ethanol-fed Wistar rats [4]; [10]): no statistically significant changes
reduction of ethanol effect on glutathione reductase (GR) activity (ethanol-fed Wistar rats [4]; [11]): no statistically significant result
GPx activity below the reference value in healthy animals (ethanol-fed Wistar rats [4]; highest concentration (UDCA 40 mg/kg b.w.)): 28%
liver cholesterol decrease compared to disease group (ethanol-fed Wistar rats [5]; liver, UDCA 40 mg/kg): 11%
reduction of ethanol effect on hepatic cholesterol (ethanol-fed Wistar rats [5]; liver, UDCA 40 mg/kg): 78%
reduction of ethanol effect on hepatic triglycerides (ethanol-fed Wistar rats [5]; liver, average over 0.4/4/40 mg/kg b.w. (UDCA 40 mg/kg), oral, 10 weeks): 55%
liver phospholipids decrease compared to disease group (ethanol-fed Wistar rats [5]; [12]): 20%
liver triglycerides decrease compared to disease group (ethanol-fed Wistar rats [5]; [12]): 31%
reduction of ethanol effect on hepatic phospholipids (ethanol-fed Wistar rats [5]; [12]): completely eliminated
reduction of ethanol effect on serum LDL cholesterol (ethanol-fed Wistar rats [5]; serum, UDCA 40 mg/kg): no significant effect
reduction of ethanol effect on serum VLDL (ethanol-fed Wistar rats [5]; serum, UDCA 40 mg/kg): no statistically significant reduction
reduction of ethanol effect on serum triglycerides (ethanol-fed Wistar rats [5]; [13]): 79%
serum triglycerides decrease compared to disease group (ethanol-fed Wistar rats [5]; [13]): 39%
reduction of ethanol effect on γ-GT activity (ethanol-fed Wistar rats [6]; UDCA 40 mg/kg): 61%
ALT activity decrease compared to disease group (ethanol-fed Wistar rats [6]; [11]): 33%
AP activity decrease compared to disease group (ethanol-fed Wistar rats [6]; [11]): 20%
AST activity decrease compared to disease group (ethanol-fed Wistar rats [6]; [11]): 19%
reduction of ethanol effect on AST activity (ethanol-fed Wistar rats [6]; [11]): 83%
γ-GT activity decrease compared to disease group (ethanol-fed Wistar rats [6]; [11]): 33%
reduction of ethanol effect on alkaline phosphatase (AP) activity (ethanol-fed Wistar rats [6]; on average (UDCA 40 mg/kg)): 66%
liver morphology (histopathology, in words) (ethanol-fed Wistar rats [7]): reduce the histopathological effects of ethanol in a comparable way
long-term high-dose safety finding ([8]; 28–30 mg/kg/day, patients with ulcerative colitis and PSC): increased risk of colorectal neoplasia
mortality at maximum follow-up versus no intervention group ([8]; network meta-analysis, alcoholic liver disease): higher

Molecule: C=CCSSCC=C [Diallyl disulfide (DADS), Diallyl disulfide]
cholesterol synthesis (in words) (cholesterol synthesis): abolished

IC50 ([2]; solvent inhibition of CYP2E1): 0.065 % (v/v)
Molecule: C[S+](C)[O-] [DMSO]
